Results as given in article PMC8374946 (European journal of pharmacology, 2021).

Columns and labels:
[1] = tested on: nontransfected HEK293T cells; assay: Ca2+ fluorescent assay in nontransfected HEK293T cells; format: cell-based; settings: 10 µM for XLR-11, UR-144, AM1220
human TRPV1 channel = human TRPV1 channel (Homo sapiens, UniProt Q8NER1); assay: TRPV1 channel Ca2+ fluorescent; format: cell-based; settings: for TRPV1 channel Ca2+ signal Emax: normalized to signal with 1 µM capsaicin, HEK293T-TRPV1 cells
Sequence of human TRPV1 channel (Q8NER1 whole entry): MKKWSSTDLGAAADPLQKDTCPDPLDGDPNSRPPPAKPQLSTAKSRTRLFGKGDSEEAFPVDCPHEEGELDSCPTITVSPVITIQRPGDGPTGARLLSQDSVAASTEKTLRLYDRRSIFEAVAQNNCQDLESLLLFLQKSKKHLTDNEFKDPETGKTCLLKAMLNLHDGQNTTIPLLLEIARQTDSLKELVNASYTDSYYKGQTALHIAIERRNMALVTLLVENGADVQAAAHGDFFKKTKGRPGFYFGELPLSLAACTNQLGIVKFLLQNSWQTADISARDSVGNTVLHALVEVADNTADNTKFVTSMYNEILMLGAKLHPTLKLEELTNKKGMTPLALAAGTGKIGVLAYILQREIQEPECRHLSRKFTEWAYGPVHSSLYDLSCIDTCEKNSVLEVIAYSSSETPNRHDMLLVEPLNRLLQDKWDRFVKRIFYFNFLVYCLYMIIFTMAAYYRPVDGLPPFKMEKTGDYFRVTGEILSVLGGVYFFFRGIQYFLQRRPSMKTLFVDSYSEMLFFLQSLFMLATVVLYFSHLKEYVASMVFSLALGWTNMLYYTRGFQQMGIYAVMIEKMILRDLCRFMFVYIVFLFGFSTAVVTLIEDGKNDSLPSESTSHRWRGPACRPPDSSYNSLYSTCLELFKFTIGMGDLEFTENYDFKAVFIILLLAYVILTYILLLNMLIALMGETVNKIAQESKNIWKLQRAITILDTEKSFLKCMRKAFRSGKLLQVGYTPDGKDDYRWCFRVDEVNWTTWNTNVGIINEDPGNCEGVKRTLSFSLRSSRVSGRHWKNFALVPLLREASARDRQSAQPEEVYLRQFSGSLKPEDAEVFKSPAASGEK

TRPV1 channels = settings: read-out: EC50 for TRPV1 channel activation; ref Soethoudt et al., 2017; cited from earlier work
[2] = target: human cannabinoid type-1 (CB1) receptor (Homo sapiens, UniProt P21554); format: cell-based
Sequence of human cannabinoid type-1 (CB1) receptor (P21554 whole entry): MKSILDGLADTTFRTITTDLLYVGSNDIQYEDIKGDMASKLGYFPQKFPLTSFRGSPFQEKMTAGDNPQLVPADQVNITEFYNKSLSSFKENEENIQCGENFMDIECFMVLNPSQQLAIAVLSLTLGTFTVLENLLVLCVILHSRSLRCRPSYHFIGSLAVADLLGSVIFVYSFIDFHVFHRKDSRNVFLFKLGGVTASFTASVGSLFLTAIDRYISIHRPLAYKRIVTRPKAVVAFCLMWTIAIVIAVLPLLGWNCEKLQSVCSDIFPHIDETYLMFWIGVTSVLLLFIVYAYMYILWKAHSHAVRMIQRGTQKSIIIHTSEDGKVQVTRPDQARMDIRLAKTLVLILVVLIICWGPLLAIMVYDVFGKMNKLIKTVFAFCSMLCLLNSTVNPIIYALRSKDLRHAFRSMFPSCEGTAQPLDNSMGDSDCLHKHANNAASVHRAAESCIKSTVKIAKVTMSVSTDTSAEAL

Row | Structure (SMILES) | Ca2+ transients in nontransfected HEK293T cells [1] | EC50 (human TRPV1 channel) | TRPV1 channel Ca2+ signal Emax (human TRPV1 channel) | EC50 (TRPV1 channels) | CB1 receptor-mediated activation of the GIRK channels [2]
1 | CCCCC/C=C\C/C=C\C/C=C\C/C=C\CCCC(=O)NCCO [AEA, N-arachidonoylethanolamine] | not observed | 2.1 µM | 0.35 | – | –
2 | CN1CCCCC1Cn1cc(C(=O)c2cccc3ccccc23)c2ccccc21 (stereo not drawn) [AM1220] | not observed | – | 0.26 | – | –
3 | CCCC(C)(C)c1ccc2c(c1)OC(C)(C)[C@@H]1CC=C(C)C[C@@H]21 [JWH-133] | – | – | – | 8.2 µM | no CB1 receptor-mediated activation
4 | CCCCCn1cc(C(=O)C2C(C)(C)C2(C)C)c2ccccc21 [UR-144] | not observed | – | 0.23 | – | –
5 | CC1(C)C(C(=O)c2cn(CCCCCF)c3ccccc23)C1(C)C [XLR-11] | not observed | – | 0.39 | – | –
6 | COc1cc(CNC(=O)CCCC/C=C/C(C)C)ccc1O [capsaicin] | not observed | – | – | – | –
